Data taken from the NIST ThermoML archive (doi:10.1016/j.fluid.2005.07.009).

Assays:
[1] = Molar enthalpy of transition or fusion; conditions: Crystal; DSC
[2] = molar heat capacity at constant pressure; conditions: 101.33 kPa, Small sample (50 mg) DSC

CCCCCCCCCCN [1-decanamine]
Conditions	Molar enthalpy of transition or fusion [kcal/mol]
[1]	10.2

[2]
Conditions	molar heat capacity at constant pressure [J/K/mol]
260.31 K, Crystal	259.31
260.64 K, Crystal	260.44
260.93 K, Crystal	261.21
261.39 K, Crystal	261.42
261.62 K, Crystal	262.06
261.99 K, Crystal	263.4
262.32 K, Crystal	263.89
262.67 K, Crystal	264.94
262.94 K, Crystal	265.77
263.34 K, Crystal	266.8
263.61 K, Crystal	266.97
263.92 K, Crystal	267.74
264.39 K, Crystal	269.3
264.62 K, Crystal	269.42
264.91 K, Crystal	270.38
265.33 K, Crystal	271.97
265.61 K, Crystal	272.3
265.95 K, Crystal	273.03
266.38 K, Crystal	274.58
266.67 K, Crystal	275.4
266.96 K, Crystal	275.97
267.36 K, Crystal	277.46
267.62 K, Crystal	278.39
267.94 K, Crystal	279.27
268.33 K, Crystal	280.36
268.66 K, Crystal	281.82
268.95 K, Crystal	282.79
269.32 K, Crystal	283.64
269.63 K, Crystal	284.29
270.21 K, Crystal	285.94
298.11 K, Liquid	372.55
299.64 K, Liquid	373.35
300.38 K, Liquid	373.78
301.27 K, Liquid	373.82
302.37 K, Liquid	374.25
303.41 K, Liquid	374.33
304.05 K, Liquid	374.34
305.25 K, Liquid	374.39
306.31 K, Liquid	374.86
307.28 K, Liquid	375.02
308.4 K, Liquid	375.08
309.24 K, Liquid	375.35
310.32 K, Liquid	375.6
311.09 K, Liquid	375.9
312.37 K, Liquid	376.23
313.36 K, Liquid	376.31
314.28 K, Liquid	376.34
315.23 K, Liquid	376.91
316.39 K, Liquid	377.46
317.53 K, Liquid	377.49
318.23 K, Liquid	377.55
319.33 K, Liquid	377.88
320.09 K, Liquid	377.93
321.19 K, Liquid	377.99
322.08 K, Liquid	378.21
323.45 K, Liquid	378.65
324.17 K, Liquid	379.09
325 K, Liquid	379.38
326.2 K, Liquid	379.69
327.09 K, Liquid	379.8
328.21 K, Liquid	379.88
329.22 K, Liquid	380.68
330.18 K, Liquid	380.93
331.23 K, Liquid	381.19
332.31 K, Liquid	381.58
333.26 K, Liquid	382.32

CCCCCCN [1-hexanamine]
Conditions	Molar enthalpy of transition or fusion [kcal/mol]
[1]	5.98

[2]
Conditions	molar heat capacity at constant pressure [J/K/mol]
205.12 K, Crystal	135.48
206.53 K, Crystal	137.42
207.27 K, Crystal	138.49
208.18 K, Crystal	140.02
209.16 K, Crystal	140.47
210.21 K, Crystal	141.21
211.81 K, Crystal	141.65
212.3 K, Crystal	141.8
213.41 K, Crystal	141.86
214.27 K, Crystal	141.99
215.45 K, Crystal	143.94
216.17 K, Crystal	144.89
217.45 K, Crystal	145.13
218.13 K, Crystal	145.21
219.48 K, Crystal	146.21
220.34 K, Crystal	147.15
221.19 K, Crystal	148.86
222.04 K, Crystal	149.71
223.38 K, Crystal	151.47
224.66 K, Crystal	152.29
225.39 K, Crystal	153.27
226.42 K, Crystal	155.08
228.17 K, Crystal	156.72
230.11 K, Crystal	160.13
267.26 K, Liquid	248.4
268.63 K, Liquid	248.52
269.54 K, Liquid	248.61
270.16 K, Liquid	248.66
271.24 K, Liquid	248.67
272.69 K, Liquid	248.95
273.56 K, Liquid	249.01
274.18 K, Liquid	249.09
275.88 K, Liquid	249.12
276.66 K, Liquid	249.26
277.16 K, Liquid	249.31
278.69 K, Liquid	249.34
279.94 K, Liquid	249.36
280.47 K, Liquid	249.45
281.8 K, Liquid	249.47
282.34 K, Liquid	249.48
283.41 K, Liquid	249.51
284.45 K, Liquid	249.55
285.4 K, Liquid	249.79
286.56 K, Liquid	249.85
287.39 K, Liquid	249.86
288.43 K, Liquid	250.09
289.09 K, Liquid	250.12
290.21 K, Liquid	250.23
292.36 K, Liquid	250.46
293.15 K, Liquid	250.5
295.59 K, Liquid	250.98
